Assay: Solubility in water (remark in preparation)
Type: physicochemical

Question: Which Solubility in water does the source give for “[K]2[trans-RuCl4(Me2SO)]2(μ-pyz) [Example 6]” here?
Answer: not very soluble in water
